Measurements published in US10542745B2, “Portable device for ex vivo stimulation of whole blood” (Hitachi Chemical Co., Ltd., priority 2010, dated 2020).

Columns and labels:
Type in all cases: cell-based
blood [1] = experiment: PHA stimulation of blood: PHA-containing collection tubes vs multi-well strip; settings: 37° C. for 4 hours; FIGS. 9A-9D
Method: Blood collection tubes were manufactured as described above. Three tubes were stored at 4° C. (tubes PHA 4C #1, #2, and #3 in FIG. 9) or room temperature (PHA RT in FIG. 9) for 20 days. Blood was then drawn into 6 tubes: a control heparin tube, a plain heparin tube, and 4 PHA-containing tubes. The blood from the control heparin tube was stimulated (by PBS or PHA) in micro-plate tube strips (3 wells each, 60 μL blood/well). The remaining 5 tubes were incubated at 37° C. for 4 hours. Various mRNA were quantified by using SYBR green real time PCR as described previously (Mitsuhashi M et al. Clin. Chem. 52:634-642, 2006). […]
(§1) cDNA was synthesized directly in each well by addition of 30 μL of buffer containing 1× reverse transcription buffer [50 mM KCl, 10 mM Tris-HCl (pH 8.3), 5.5 mM MgCl2, 1 nL/μL Tween 20], 1.25 mM each deoxynucleoside triphosphate, 4 units of rRNasin, and 80 U of MMLV reverse transcriptase (Promega; without primers) and incubation at 37° C. for 2 h. […] The cycle threshold (Ct), i.e., the cycle at which certain amounts of PCR products (based on fluorescence) were generated, was determined with analytical software (SDS; Applied Biosystems). The ΔCt were determined by subtracting each Ct of PHA-treated sample from each Ct of PBS-treated control sample, and the fold increase was calculated by 2^-ΔCt.

blood [2] = experiment: Induction of IL2 or CXCL9 after incubation in the portable device vs controlled incubators; settings: FIGS. 13A and 13B
Method: FIGS. 13A and 13B depict a comparison of the level of induction of 1L2 or CXCL9 when stimulated by PHA or IFN alpha and then incubated in the portable device disclosed herein or in controlled incubators (at a variety of temperatures). […] This again represents the degree of flexibility in temperatures and times that can be used (as disclosed above) to perform ex vivo stimulation of blood samples.

blood [3] = experiment: Ex vivo stimulation of blood in strip wells, then 4° C. storage; ACTB, p21 and PUMA mRNA quantified; settings: for levels of both p21 and PUMA after 3 days of post-stimulation storage: stored at 4° C. for 3 days after stimulation, higher Ct values
Method: (§2) Briefly, 96-well filterplates were assembled with leukocyte reduction membranes (Leukosorb; Pall) and placed over oligo(dT)-immobilized collection plates. 150 μL of 5 mmol/L Tris (pH 7.4) was applied to wet the filter membranes. After centrifugation at 120 g for 1 min at 4° C. to remove the Tris solution from the membranes, 50 μL of the stimulated whole blood samples was applied to each well and immediately centrifuged at 120 g for 2 min at 4° C. The wells were then washed once with 300 μL of phosphate-buffered saline. After centrifugation at 2000 g for 5 min at 4° C. to remove the saline solution, 60 μL of stock lysis buffer [5 g/L N-lauroylsarcosine, 4× standard saline citrate, 10 mmol/L Tris-HCl (pH 7.4), 1 mmol/L EDTA, 1 mL/L IGEPAL CA-630 (substitute of NP-40), 1.79 mol/L guanidine thiocyanate (all from Sigma)], supplemented with 10 mL/L 2-mercaptoethanol (Bio-Rad), 0.5 g/L proteinase K (Pierce), 0.1 g/L salmon sperm DNA (5 Prime Eppendorf/Brinkman), 0.1 g/L Escherichia coli tRNA (Sigma), 5 nmol/L each of the specific reverse primers, and 10^10 molecules/L of synthetic RNA34 (as external control), was added to each well of the filterplates. The plates were then incubated at 37° C. for 10 min, placed over oligo(dT)-immobilized collection microplates (GenePlate; RNAture), and centrifuged at 2000 g for 5 min at 4° C. After overnight storage at 4° C., the microplates were washed 3 times with 100 μL of plain lysis buffer and then 3 times with 150 μL of wash buffer [0.5 mol/L NaCl, 10 mmol/L Tris (pH 7.4) 1 mmol/L EDTA] at 4° C.
cDNA was synthesized directly in each well by addition of 30 μL of buffer containing 1× reverse transcription buffer [50 mM KCl, 10 mM Tris-HCl (pH 8.3), 5.5 mM MgCl2, 1 nL/μL Tween 20], 1.25 mM each deoxynucleoside triphosphate, 4 units of rRNasin, and 80 U of MMLV reverse transcriptase (Promega; without primers) and incubation at 37° C. for 2 h. From each 30-μL reaction, 4 μL of cDNA was transferred directly to 384-well PCR plates, and 5 μL of TaqMan universal master mixture (Applied Biosystems) and 1 μL of 5 μM each of the forward and reverse primers for each mRNA or beta-actin were added. PCR was carried out in a PRISM 7900HT (Applied Biosystems), with 1 cycle of 95° C. for 10 min followed by 45 cycles of 95° C. for 30 s, 55° C. for 30 s, and 60° C. for 1 min. Each gene was amplified in separate wells. The cycle threshold (Ct), i.e., the cycle at which certain amounts of PCR products (based on fluorescence) were generated, was determined with analytical software (SDS; Applied Biosystems). The ΔCt were determined by subtracting each Ct of PHA-treated sample from each Ct of PBS-treated control sample, and the fold increase was calculated by 2^-ΔCt.
In order to evaluate the stability of samples after stimulation, blood was stimulated with DNR (10 μM in final concentration), AraC (100 μM in final concentration), or PBS in strip wells for 4 hours at 37° C., and then stored at 4° C. for 0-3 days. After the 4° C. incubation, the samples were stored in a −80° C. freezer until analysis. These experimental conditions are designed to represent the possible conditions a sample would be exposed to during transport in the portable incubation devices described herein. Three mRNAs (ACTB, p21, and PUMA) were quantified as described above.

blood [4] = experiment: Time course of mRNA induction in blood at two incubation temperatures (ACTB, IL2, CXCL9); settings: strip wells, 42° C. vs 37° C., 0-9 hours; FIGS. 12C and 12F
Method: Briefly, 96-well filterplates were assembled with leukocyte reduction membranes (Leukosorb; Pall) and placed over oligo(dT)-immobilized collection plates. 150 μL of 5 mmol/L Tris (pH 7.4) was applied to wet the filter membranes. After centrifugation at 120 g for 1 min at 4° C. to remove the Tris solution from the membranes, 50 μL of the stimulated whole blood samples was applied to each well and immediately centrifuged at 120 g for 2 min at 4° C. The wells were then washed once with 300 μL of phosphate-buffered saline. […]
as §1
The time course of induction was also evaluated for two different incubation temperatures. […] ACTB, IL2, andCXCL9 mRNA were quantified.

blood [5] = experiment: IFNa2b stimulation of blood: vacuum tube vs multi-well strip, immediate vs delayed
Method: as §2, with “After overnight storage at 4° C., the microplates were washed 3 times with 100 μL of plain lysis buffer and then 3 times with 150 μL of wash buffer [0.5 mol/L NaCl, 10 mmol/L Tris (pH 7.4) 1 mmol/L EDTA] at 4° C.” left out
as §1, with “2^-ΔCt. […]” for “2^-ΔCt.”

[6] = DNR 10 μM or AraC 100 μM final, 4 hours at 37° C., vs PBS
[7] = DNR 10 μM or AraC 100 μM final, 4 hours at 37° C., vs PBS, FIGS. 11A-11B
[8] = blood stored at 4° C. for 6 hours before ex vivo stimulation

phytohemaglutinin [PHA]
mRNA (beta-actin, interferon gamma, interleukin 2, GM-CSF): stimulation in multi-well strip vs PHA-containing blood collection tubes (blood [1]): no differences were detected | IL2 induction, portable device vs controlled incubators (blood [2]): not significantly different

COc1cccc2c1C(=O)c1c(O)c3c(c(O)c1C2=O)C[C@@](O)(C(C)=O)C[C@@H]3O[C@H]1C[C@H](N)[C@H](O)[C@H](C)O1 [DNR, daunorubicin]
PUMA expression induction (blood [3]; [6]): induced | beta actin mRNA induction (blood [3]; [7]): not induced | p21 mRNA induction (blood [3]; [7]): significant induction | levels of both p21 and PUMA after 3 days of post-stimulation storage (blood [3]): appear to have decreased

Nc1ccn([C@@H]2O[C@H](CO)[C@@H](O)[C@@H]2O)c(=O)n1 [AraC, cytarabine]
PUMA expression induction (blood [3]; [6]): induced | beta actin mRNA induction (blood [3]; [7]): not induced | levels of both p21 and PUMA after 3 days of post-stimulation storage (blood [3]): appear to have decreased

interferon alpha 2b [IFNa2b]
CXCL-9 induction (blood [4]): induced to a similar extent | performance of IFNa2b tube vs conventional IFNa2b stimulation in strip wells (blood [5]; 2 hours at 37° C. immediately after blood draw, FIGS. 10A-10C): identical | CXCL10 induction (blood [5]; [8]): less induction | GIP2 induction (blood [5]; [8]): less induction | CXCL9 induction, portable device vs controlled incubators (blood [2]): not significantly different
